In patent publication US12338229B2, “Small molecule stimulators of steroid receptor coactivator-3 and methods of their use as cardioprotective and/or vascular regenerative agents” (BAYLOR COLLEGE OF MEDICINE, priority 2018, dated 2025):

Key:
cardiac immune cells = assay: Flow cytometry cardiac immune phenotyping post-MI; assay type: in vivo, mice; conditions: 24 hours post-MI, vs control
Description: Flow Cytometry and Cardiac Immune Phenotyping. Hearts and spleens isolated from control and MCB-613 treated mice 24 hours post-MI or post-sham surgery were digested in digestion buffer: 500 μL of DNAse I (10 mg/ml), 500 μl Collagenase II (50 mg/ml) into 4 ml (enough for approx. 12 spleens @ 1x) RPMI 1640. Cells were placed on a GentleMacs dissociator and run on “IMPC_step2” twice and incubated at 25° C. for 15 minutes. The “IMPC_step2” program was repeated and the samples were incubated at 25° C. an additional 15 minutes followed by another round of the “IMPC_step2” program. Then, 400 μL of 4° C. Stopping Buffer (1x PBS, 0.1M EDTA) was added to each sample and centrifuged at ˜100 g for one second to collect liquid at the bottom of tube. Samples were filtered through mesh filter caps into 50 mL conical tubes. The tubes were then washed with 1 mL FACs buffer which was also then passed through the filter. Heart preps were more viscous and were washed with 20 mL cold filtered saline. Samples were centrifuged at 500 g for 6 minutes. Supernatant was discarded and the pellet suspended in 1 mL 4° C. FACS buffer. Following red blood cell (RBC) lysis and blocking, single cell suspensions were stained with an immune cell panel and quantified using an LSR II flow cytometer. Then, 500,000 live events were counted for spleen controls and the entire tube of heart cells was recorded and analyzed.

[1] = test system: GAL4-DBD full length SRC-1, -2 or -3 fusion; assay: GAL4 luciferase reporter assay in cardiac fibroblasts; assay type: cell-based, mice; conditions: 6 μM, SRC-3 vs SRC-1 and SRC-2
Description: Reporter assay. Cardiac fibroblasts were plated in six well plates and transfected with a GAL4 responsive luciferase reporter (pG5-luc) and expression vectors for a GAL4 DNA binding domain (GAL4-DBD) full length SRC-1, -2 or -3 fusion construct (pBIND-SRC-1, pBIND-SRC-2 or pBIND-SRC-3) or pBIND control using Lipofectamine 3000 (Invitrogen; Carlsbad, CA). Twenty-four (24) hours post transfection, cells were treated with 6 μM MCB-613 or dimethyl sulfoxide (DMSO) and incubated overnight. Post treatment cells were lysed and total protein was isolated using the Promega luciferase assay system (Promega Life Sciences; Madison, WI). Protein concentration was measured using a Bradford assay (Bio-Rad Laboratories; Hercules, CA). Relative light units were measured and normalized to total protein concentration.

[2] = test system: mice after myocardial infarction; assay: Myocardial infarction model, permanent LAD ligation (echocardiography, histology, immunostaining, PET, EM); assay type: in vivo, ICR (CD1) mice; conditions: repeat injections three days at weeks 8 and 16
cardiac fibroblasts = assay: Tube formation assay; assay type: cell-based, mice; conditions: adult cardiac fibroblasts, 6 μM, 24 hours
Description: Tube formation assay. Cardiac fibroblasts were treated with either DMSO or 6 μM MCB-613. Twenty four hours post treatment, drug was washed off by rinsing the cells twice with PBS. The cells were then conditioned with endothelial cell growth media for 24 hours. Post conditioning, cells were plated on growth factor reduced matrigel (10 mg/ml) to allow for tube formation overnight. The next day tubes were stained with Calcein AM and imaged using the Cytation imaging system.

[3] = test system: mouse hearts after myocardial infarction; assay: Metabolomic profiling of hearts post-MI; assay type: in vivo, mice
Description: Metabolomic profiling. Hearts from 4 control and 4 MCB-613-treated mice were isolated 24 hours post-MI, perfused with 10 mM KCl, snap frozen in liquid nitrogen and stored at −80° C. 10 mgs of tissue was analyzed for fatty acids and carnitines normalized to 3 normal liver control samples. Fatty acids were normalized by Internal Standard L-Tryptophan and carnitines normalized by Internal Standard L-Zeatine.

[4] = test system: chorioallantoic membrane (CAM) of chicken eggs; assay: CAM angiogenesis assay with drug treated mouse embryonic fibroblasts; assay type: in vivo; conditions: MEFs pre-treated with 0.6 μM for 24 hours
Description: Angiogenesis Assay with drug treated mouse embryonic fibroblasts (MEFs). Five to seven day old SPF certified fertilized chicken eggs (white leghorn) were used to access the chorioallantoic membrane (CAM). Mouse embryonic fibroblasts (MEFs) were treated with 0.6 μM MCB-613 for 24 hours. Post treatment, two million MEFs were suspended in 60 μL of PBS containing magnesium and calcium and 40 μL of Matrigel (2M/egg) (Corning Inc.; Corning, NY). The MEFs were then mixed well by pipetting and transferred to the surface of the CAM. The vessel area on the CAM was monitored on a daily basis. Vehicle controls were maintained throughout the experiment. MEFs were allowed to grow on the CAM surface for four days at the end of which an image thresholding method (ImageJ) was used to quantify total vessel area on the CAM. Percent growth in vessel area was then compared across control and treated eggs (MEF treated versus untreated). n=6 eggs per condition.

[5] = test system: mice after myocardial infarction; assay: Progressive maximal exercise test, indirect calorimetry (VO2, VCO2); assay type: in vivo; conditions: three weeks post-MI
Description: RER, VO2 and VCO2 measurements. Respiratory exchange ratio (RER), oxygen consumption (VO^2) and carbon dioxide expiration (VCO2) were measured by indirect calorimetry using a progressive maximal exercise test until mice reached exhaustion.
RER, VO2 and VCO2 measurements. RER, VO2 and VCO2 were measured by indirect calorimetry using a progressive maximal exercise test until mice reached exhaustion.

[6] = test system: chorioallantoic membrane (CAM) of chicken eggs; assay: Chick egg CAM angiogenesis assay, topical drug; assay type: in vivo; conditions: 0.6 μM applied directly to chick eggs
Description: Angiogenesis assay for small molecule stimulator treatments. Five to seven day old specific-pathogen-free (SPF) certified fertilized chicken eggs (white leghorn) were used to access the chorioallantoic membrane (CAM). The total vessel area on the CAM was measured using images obtained prior to application of the drug. MCB-613 (100 μL) at a concentration of 0.6 μM was topically applied onto the surface of the CAM. The vessel area on the CAM was monitored on a daily basis following daily application of the drug. Vehicle controls were maintained throughout the experiment. Treatments were continued for four days at the end of which an image thresholding method (ImageJ) was used to quantify total vessel area on the CAM. Percent growth in vessel area was compared for control and treated eggs. n=6 eggs per condition. This experiment was repeated three times.

[7] = Toxicity profile in vitro and in vivo

Compound: CCC1C/C(=C\c2cccnc2)C(=O)/C(=C/c2cccnc2)C1 (centres unmarked) [MCB-613]
- composition of cardiac immune cells (FACS) (cardiac immune cells): significant decrease in B cells, a trend for decreased monocytes and no change in the fraction of granulocytes
- SRC activation (luciferase, RLU) [1]: induced in response to MCB-613 to a greater extent than for SRC-1 and SRC-2
- effect of repeat injections on ejection fraction [2]: did not alter ejection fractions
- tube formation (cardiac fibroblasts): stimulated tube formation
- cardioprotective carnitine metabolites ([3]; mouse hearts 24 hours post-MI): increases cardioprotective carnitine metabolites
- β-oxidation of long-chain fatty acids ([3]; mouse hearts 24 hours post-MI): increases β-oxidation of long-chain fatty acids
- methylglutaryl carnitine ([3]; mouse hearts post-MI): decreases methylglutaryl carnitine
- angiogenesis (vessel area on CAM) [4]: promoted robust angiogenesis
- VCO2 and VO2 during exercise [5]: VCO2 and VO2 are elevated
- angiogenesis (vessel area on CAM) [6]: stimulated angiogenesis in vivo
- toxicity profile [7]: low toxicity profile in vitro and in vivo
